Laboratory results published in patent publication US11401278B2, “Macrocyclic indole derivatives” (The Broad Institute, Inc., priority 2017, dated 2022).
Where two headings read alike, the source gives them in different places.

Experiments:
BCL-2 = BCL-2 (Homo sapiens (Human), UniProt P10415); experiment: Protein-protein interaction assay BCL-2/Bad BH3 peptide (BCL-2 assay, TR-FRET); format: binding; conditions: His-BCL-2 / Bad BH3 peptide, median
Summary of the method: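 His-BCL-2 (1-211, E. coli) at 1 nM preincubated 10 min at 22 °C with compound (11 concentrations, 0.1 nM-20 μM, duplicates), then 1 nM biotinylated Bad BH3 peptide added. After 1 h at 22 °C plus overnight at 4 °C, TR-FRET 665/620 ratio normalised to DMSO and no-BCL-2 controls, IC50 from 4-parameter fit.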

SUDHL10 [1] = experiment: Induction of caspase-3/7 activity (Assay 4), SUDHL10; format: cell-based; conditions: caspase-3/7 induction, median
Summary of the method: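 Caspase-3/7 activity measured by Caspase-Glo 3/7 luminescence in DLBCL cells after 3 h compound treatment at 37 °C. Medium-only background subtracted. EC50 fitted with C0 fixed at 1 and top set to the reference compound's plateau/max induction.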

SUDHL5 [2] = experiment: Antiproliferation assay (Assay 7), SUDHL5; format: cell-based; conditions: CellTiter-Glo, median, read-out: Antiproli SUDHL5 [M] (median) IC50
Summary of the method: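 Luminescent ATP-based viability (CellTiter-Glo) measured after 72 hours of compound treatment at 37° C, alongside a time-zero plate read on the day of plating.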

SUDHL5 [3] = experiment: Induction of cytotoxicity (Assay 6), SUDHL5; conditions: read-out: Cytotox SUDHL5 [M] (median) IC50, CellTiter-Glo, 5 hours, SUDHL5
SUDHL10 [4] = experiment: Induction of cytotoxicity (Assay 6), SUDHL10; conditions: read-out: Cytotox SUDHL10 [M] (median) IC50, CellTiter-Glo, 5 hours, SUDHL10

BCL-2, sequence (P10415 other isoform, or with tags, fused parts or gaps): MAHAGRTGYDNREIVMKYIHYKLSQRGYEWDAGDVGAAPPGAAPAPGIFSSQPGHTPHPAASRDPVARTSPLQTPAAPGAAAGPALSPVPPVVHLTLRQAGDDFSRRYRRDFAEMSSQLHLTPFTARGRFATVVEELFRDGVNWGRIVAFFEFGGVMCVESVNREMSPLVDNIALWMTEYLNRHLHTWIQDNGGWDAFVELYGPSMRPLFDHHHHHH

| IC50 (BCL-2) | EC50 (SUDHL10 [1]; 3 hours) | IC50 (SUDHL5 [2]; 72 hours) | EC50 (SUDHL10 [1]; Homo sapiens, SU-DHL10, 3 h) | IC50 (SUDHL5 [2]; Homo sapiens, SU-DHL-5, 72 h) | SMILES | IC50 (SUDHL5 [3]) | IC50 (SUDHL10 [4]) | IC50 (SUDHL5 [3]; Homo sapiens, SU-DHL-5, 5 h) | IC50 (SUDHL10 [4]; Homo sapiens, SU-DHL10, 5 h) |
| --- | --- | --- | --- | --- | --- | --- | --- | --- | --- |
| > 20000 nM | > 33000 nM | 2e-05 M | – | – | Cc1c2c(nn1C)CNS(=O)(=O)CCCn1c(C(=O)O)c(CCCOc3cccc4cc(F)ccc34)c3ccc(Cl)c-2c31 (single isomer, unassigned; enantiomer 2) [Example 52, 4-chloro-7-{3-[(6-fluoronaphthalen-1-yl)oxy]propyl}-2,3-dimethyl-13,13-dioxo-10,11,12,13,14,15-hexahydro-2H-13lambda^6-pyrazolo[3′,4′:4,5][1,2,8]thiadiazacycloundecino[6,7,8-hi]indole-8-carboxylic acid (Enantiomer 2)] | 1.7e-05 M | 1.7e-05 M | – | – |
| 14000 nM | 6800 nM | 3.7e-06 M | – | – | CCc1c2c(nn1C)C(CCC1CCOCC1)N(C)S(=O)(=O)CCCn1c(C(=O)O)c(CCCOc3cccc4cc(F)ccc34)c3ccc(Cl)c-2c31 (single isomer, unassigned; enantiomer 2) [Example 62, (−)-4-chloro-3-ethyl-7-{3-[(6-fluoronaphthalen-1-yl)oxy]propyl}-2,14-dimethyl-15-[2-(oxan-4-yl)ethyl]-13,13-dioxo-10,11,12,13,14,15-hexahydro-2H-13lambda^6-pyrazolo[3′,4′:4,5][1,2,8]thiadiazacycloundecino[6,7,8-hi]indole-8-carboxylic acid (Enantiomer 2)] | 5.3e-06 M | 9.7e-06 M | – | – |
| 19000 nM | 42 nM | 7e-08 M | – | – | CCc1c2c(nn1C)C(CCC1CCOCC1)N(C)S(=O)(=O)CCCn1c(C(=O)O)c(CCCOc3cccc4cc(F)ccc34)c3ccc(Cl)c-2c31 (single isomer, unassigned; enantiomer 3) [Example 63, (+)-4-chloro-3-ethyl-7-{3-[(6-fluoronaphthalen-1-yl)oxy]propyl}-2,14-dimethyl-15-[2-(oxan-4-yl)ethyl]-13,13-dioxo-10,11,12,13,14,15-hexahydro-2H-13lambda^6-pyrazolo[3′,4′:4,5][1,2,8]thiadiazacycloundecino[6,7,8-hi]indole-8-carboxylic acid (Enantiomer 3)] | 4.5e-08 M | 8.6e-08 M | – | – |
| > 20000 nM | 1600 nM | 1.4e-06 M | – | – | CCc1c2c(nn1C)C(CCC1CCOCC1)N(C)S(=O)(=O)CCCn1c(C(=O)O)c(CCCOc3cccc4cc(F)ccc34)c3ccc(Cl)c-2c31 (single isomer, unassigned; enantiomer 4) [Example 64, (−)-4-chloro-3-ethyl-7-{3-[(6-fluoronaphthalen-1-yl)oxy]propyl}-2,14-dimethyl-15-[2-(oxan-4-yl)ethyl]-13,13-dioxo-10,11,12,13,14,15-hexahydro-2H-13lambda^6-pyrazolo[3′,4′:4,5][1,2,8]thiadiazacycloundecino[6,7,8-hi]indole-8-carboxylic acid (Enantiomer 4)] | 1.2e-06 M | 2.9e-06 M | – | – |

Further lines, the compound ahead of its results:

| SMILES | IC50 (BCL-2) | EC50 (SUDHL10 [1]; 3 hours) | IC50 (SUDHL5 [2]; 72 hours) | EC50 (SUDHL10 [1]; Homo sapiens, SU-DHL10, 3 h) | IC50 (SUDHL5 [2]; Homo sapiens, SU-DHL-5, 72 h) | IC50 (SUDHL5 [3]) | IC50 (SUDHL10 [4]) | IC50 (SUDHL5 [3]; Homo sapiens, SU-DHL-5, 5 h) | IC50 (SUDHL10 [4]; Homo sapiens, SU-DHL10, 5 h) |
| --- | --- | --- | --- | --- | --- | --- | --- | --- | --- |
| CCc1c2c(nn1C)CN(C)S(=O)(=O)CCCn1c(C(=O)O)c(CCCOc3cccc4ccccc34)c3ccc(Cl)c-2c31 [Example 20, (rac)-13-Chloro-12-ethyl-8,11-dimethyl-1-(3-(naphthalen-1-yloxy)propyl)-5,6,9,11-tetrahydro-4H,8H-pyrazolo[3′,4′:4,5][1]thia[2,8]diazacycloundecino[6,7,8-hi]indole-2-carboxylic acid 7,7-dioxide] | > 20000 nM | – | – | 2100 nM | 5.2e-07 M | – | – | 9.1e-07 M | 1.7e-06 M |
| CCc1c2c(nn1C)CN(C)S(=O)(=O)CCCn1c(C(=O)O)c(CCCOc3cccc4c3CCC4)c3ccc(Cl)c-2c31 [Example 21, (rac)-13-Chloro-1-(3-((2,3-dihydro-1H-inden-4-yl)oxy)propyl)-12-ethyl-8,11-dimethyl-5,6,9,11-tetrahydro-4H,8H-pyrazolo[3′,4′:4,5][1]thia[2,8]diazacycloundecino[6,7,8-hi]indole-2-carboxylic acid 7,7-dioxide] | > 20000 nM | – | – | 1400 nM | 5.3e-07 M | – | – | 1e-06 M | 1.8e-06 M |
